In ChEMBL document CHEMBL1146414, “New Agelasine Compound from the Marine Sponge Agelas mauritiana as an Antifouling Substance against Macroalgae” (J Nat Prod, 1997):
The source made the active and inactive calls. No cut-off for these calls is given here.

How the values were obtained:
Salinivibrio costicola = experiment: Antibacterial activity against sVibrio costicola; format: functional, organism-based
Prorocentrum micans = experiment: Antimicroalgal activity against Prorocentrum micans at 1.0 to 2.5 ppm; format: functional, organism-based
[1] = test system: Anagnostidinema amphibium; experiment: Antimicroalgal activity against Oscillatoria amphibia at 1.0 to 2.5 ppm; format: functional, organism-based
Ulva [2] = experiment: Antifouling activity against Ulva conglobata spores assessed as germination and attachment rate at 2.5 to 10.0 ppm; format: functional, organism-based
Ulva [3] = experiment: Toxicity against Ulva conglobata spores at 50 ppm; format: organism-based; conditions: in vivo
Escherichia coli = experiment: Antibacterial activity against Escherichia coli; format: functional, organism-based
Skeletonema costatum = experiment: Antimicroalgal activity against Skeletonema costatum at 1.0 to 2.5 ppm; format: functional, organism-based
Brachiomonas submarina = experiment: Antimicroalgal activity against Brachiomonas submarina at 1.0 to 2.5 ppm; format: functional, organism-based
Staphylococcus aureus = experiment: Antibacterial activity against Staphylococcus aureus; format: functional, organism-based
Bacillus subtilis = experiment: Antibacterial activity against Bacillus subtilis; format: functional, organism-based

With `C/C(=C\C[n+]1cn(C)c2ncnc(N)c21)CC[C@@]1(C)C2=CCCC(C)(C)[C@@H]2CC[C@@H]1C.[Cl-]` the Activity (Salinivibrio costicola) was “inactive”, the Activity (Prorocentrum micans) was “Active” and the Activity [1] was “Active”. The Activity (Ulva [2]) was “Active”, the Activity (Ulva [3]) was “Toxic” and the Activity (Escherichia coli) was “inactive”. The Activity (Skeletonema costatum) was “Active”, the Activity (Brachiomonas submarina) was “Active” and the Activity (Staphylococcus aureus) was “inactive”. The Activity (Bacillus subtilis) was “inactive”.
